This is an account of results in patent publication US4168379A, “Pyridin-3-ols” (BASF Aktiengesellschaft, priority 1977, dated 1979).

The nature of series [1]: acute toxicity (LD 50, Probit analysis, death within 24 hours). The following applies: mouse, in vivo; for LD50 at 24 h: ip, intraperitoneal, female Swiss mice; for selectivity ratio: footnote 7 formula given as drawing 13, values correspond to LD 50 (mice, i.p.) / ED 50 (rats, oral), read-out: Therapeutic range. The procedure:
The acute toxicity was determined on groups of 10 or 20 female Swiss mice, weighing 20-26 g, the compounds being administered intraperitoneally.

Series [2] is described as follows: in vivo. It is filed as in vivo, rats (Sprague Dawley strain). The following applies: rat, in vivo; oral, rats; dose at which Δ% was determined; read-out: Maximum action: Dose (highest non-toxic dose). On the procedure: (§1) To determine the anti-arrhythmic activity, the drugs were administered orally to rats (Sprague Dawley strain, weight […]) 45 minutes before the start of the narcosis.
(§2) The animals were narcotized with thiobutabartital (100 mg/kg administered intraperitoneally). The arrhythmogenic substance used was aconitine, which was administered by intravenous infusion (at a rate of 0.005 mg/kg. min) 60 minutes after administration of the test substance. In the case of untreated animals (N=30), arrhythmias occurred after an average of 3.7±0.9 minutes, the commencement of which can be delayed by anti-arrhythmic agents, the delay depending on the dosage.
(§3) For a quantitative evaluation of the linear relation between log dose (mg/kg) of the test substances and the relative prolongation of the duration of aconitine infusion (Δ%), the dose which extended the duration of infusion by 50% (ED 50) was determined. The prior art anti-arrhythmic agent quinidine served as a comparative substance.

Series [3] relates to Aconitine-induced arrhythmia. Nature of the series: animal or person. It is filed as in vivo, rats (Sprague Dawley strain). The following applies: for ED50: Rattus norvegicus, po, 1 h, read-out: ED 50: dose, administered orally, which prolongs the duration of aconitine infusion by 50%; for antiarrhythmic action (in words): as such and/or as acid addition salts. The procedure:
as §1, §2, §3

For orientation: LD50 means the dose expected to kill half of the subjects tested. The low end stands for a more toxic substance, the high end for a less toxic substance.

Regarding `Cc1nc(Cc2ccccc2)c2c(c1OCCCNC(C)C)COC2` [Example IV, 4-benzyl-6-methyl-1,3-dihydro-furo[3,4-c]pyridin-7-yl 3-isopropylamino-propyl ether], in series [1], the LD50 at 24 h amounted to 139 mg/kg and the selectivity ratio is 4.81. Moreover, the MTD in series [2] was 215 mg/kg. In series [3], the ED50 worked out at 28.9 mg/kg and the “antiarrhythmic action (in words)” value is “have an antiarrhythmic action”.
On the same counts, the results for `CN(C)CCCOc1c(Cc2ccccc2)nc(Cc2ccccc2)c2c1COC2` [III, 4,6-dibenzyl-1,3-dihydrofuro[3,4-c]pyridin-7-yl 3-dimethylaminopropyl ether] are 98.3 mg/kg, 6.6, 215 mg/kg, 14.9 mg/kg and “have an antiarrhythmic action”.
Take `C=C[C@H]1C[N@@]2CC[C@H]1C[C@@H]2[C@@H](O)c1ccnc2ccc(OC)cc12` [Quinidine, quinidine, reference compound]: in series [1], the LD50 at 24 h is 180 mg/kg. Also, the ED50 in series [3] was found to be 42.3 mg/kg.
With `Cc1nc(Cc2ccccc2)c2c(c1OCCCCNC(C)C)COC2` [V, 4-benzyl-6-methyl-1,3-dihydro-furo[3,4-c]pyridin-7-yl 4-isopropylaminobutyl ether], in series [1], the LD50 at 24 h amounted to 99.3 mg/kg and the selectivity ratio is 17.5. In addition, in series [2], the MTD came to 100 mg/kg. Also, in series [3], the ED50 is 5.66 mg/kg and the “antiarrhythmic action (in words)” value is recorded as “have an antiarrhythmic action”.
On the same counts, the results for `Cc1nc(Cc2ccccc2)c2c(c1OCCC(C)CCNC(C)C)COC2` (centres unmarked) [VI, 4-benzyl-6-methyl-1,3-dihydrofuro[3,4-c]pyridin-7-yl 5-isopropylamino-(3-methylpentyl) ether] are 82.2 mg/kg, 6.74, 100 mg/kg, 12.2 mg/kg and “have an antiarrhythmic action”.
The like results for `CCN(CC)CCC(C)CCOc1c(C)nc(Cc2ccccc2)c2c1COC2` (centres unmarked) [VII, 4-benzyl-6-methyl-1,3-dihydro-furo[3,4-c]pyridin-7-yl 5-diethylamino-(3-methylpentyl) ether] were, in that order, 88.9 mg/kg, 7.86, 100 mg/kg, 11.3 mg/kg and “have an antiarrhythmic action”.
Consider `Cc1nc(Cc2ccccc2)c2c(c1OCCCCNC(C)(C)C)COC2` [VIII, 4-benzyl-6-methyl-1,3-dihydrofuro[3,4-c]pyridin-7-yl 4-tert.-butylamino-butyl ether], for which, in series [1], the LD50 at 24 h worked out at 73.9 mg/kg and the selectivity ratio was determined as 7.95. In addition, the MTD in series [2] was 46.4 mg/kg. In addition, in series [3], the ED50 is 9.29 mg/kg and the “antiarrhythmic action (in words)” value is listed as “have an antiarrhythmic action”.
